The results in this text go back to US20030176501A1 (priority 2000, published 2003).

On the set-up of series [1]: species or system human. The following applies: in vivo.
Series [2] addresses T1, HMG-CoA reductase (Homo sapiens, UniProt P04035).
T1 sequence (P04035 1-888): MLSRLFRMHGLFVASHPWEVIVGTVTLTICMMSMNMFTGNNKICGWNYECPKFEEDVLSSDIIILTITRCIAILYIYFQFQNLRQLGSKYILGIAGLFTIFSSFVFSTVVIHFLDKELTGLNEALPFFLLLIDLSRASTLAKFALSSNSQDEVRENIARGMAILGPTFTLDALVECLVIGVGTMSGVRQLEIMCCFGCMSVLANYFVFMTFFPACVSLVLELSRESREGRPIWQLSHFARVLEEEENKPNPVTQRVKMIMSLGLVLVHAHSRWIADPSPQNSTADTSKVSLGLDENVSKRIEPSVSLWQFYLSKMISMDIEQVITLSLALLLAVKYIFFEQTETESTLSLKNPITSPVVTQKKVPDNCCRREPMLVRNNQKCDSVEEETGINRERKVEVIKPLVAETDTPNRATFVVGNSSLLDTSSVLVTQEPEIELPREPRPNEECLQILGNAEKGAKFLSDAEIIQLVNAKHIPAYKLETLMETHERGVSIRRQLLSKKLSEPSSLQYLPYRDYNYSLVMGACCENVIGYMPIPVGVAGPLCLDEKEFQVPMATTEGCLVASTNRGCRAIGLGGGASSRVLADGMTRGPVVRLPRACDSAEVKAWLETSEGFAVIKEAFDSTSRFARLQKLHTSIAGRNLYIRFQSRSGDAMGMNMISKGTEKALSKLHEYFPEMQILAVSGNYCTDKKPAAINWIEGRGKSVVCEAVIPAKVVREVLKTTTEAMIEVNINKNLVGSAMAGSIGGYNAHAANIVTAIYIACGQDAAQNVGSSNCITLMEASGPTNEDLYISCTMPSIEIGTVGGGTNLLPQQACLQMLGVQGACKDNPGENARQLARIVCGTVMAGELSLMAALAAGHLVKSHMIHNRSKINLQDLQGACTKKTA
Conditions: in vivo, po.

Structures are written as SMILES.

As to `CCC(C)(C)C(=O)O[C@H]1C[C@@H](C)C=C2C=C[C@H](C)[C@H](CC[C@@H](O)C[C@@H](O)CC(=O)O)[C@H]21` [SVA, dihydroxy open acid simvastatin], the “apparent t1/2, effect of itraconazole” value in series [1] is recorded as “essentially unchanged”. In addition, the “t½, SV in plasma” value in series [1] (male, human, po) is recorded as 6.7 (1.7) hr. Further, the “Cmax, Active Inhibitors” value in series [2] is listed as 5.7 ± 3.0 ng eq/mL.
